Reference: patent US11845724B2, “USP30 inhibitors and uses thereof” (Vincere Biosciences, Inc., priority 2019, dated 2023)
Like-named read-outs stand apart in the source and are kept apart here.

Legend:
[1] = target: USP30 (Homo sapiens (Human), UniProt Q70CQ3); experiment: Dundee MALDI-TOF mass spectrometry assay (IC50); format: biochemical; details: USP30 25 ng/μl, K48-linked diubiquitin 5.6 μM, avg, read-out: Dundee IC50 μM (avg in vitro MS assay)
Description: Compounds were tested in a MALDI-TOF assay based on the paper by Ritorto et al. (Ritorto et al. Screening of DUB activity and specificity by MALDI-TOF mass spectrometry. Nat. […] USP30 (25 ng/μl) tested against K48-linked diubiquitin (5.6 μM). USP30 was diluted in a buffer containing 40 mM Tris, 0.01% BSA, 1 mM DTT and K48 in 40 mM Tris, 0.01% BSA. The compounds were pre-incubated with the USP30 for 5 mins at room temp before the K48 dimer addition. The assay mixture was then incubated for 45 mins at room temp. The assay was stopped by the addition of TFA to a final concentration of 2% (v/v). […] Then 250 nl of these solutions were spotted onto an MTP AnchorChip 1,536 TF and this is analysed on the Bruker rapifleX MALDI-TOF.

[2] = target: recombinant USP30 (amino acids 57-517 of the human sequence) (Homo sapiens (Human), UniProt Q70CQ3); experiment: In vitro USP30 biochemical assay (Ubiquitin-Rhodamine)
Chain of recombinant USP30 (amino acids 57-517 of the human sequence) (Q70CQ3 57-517): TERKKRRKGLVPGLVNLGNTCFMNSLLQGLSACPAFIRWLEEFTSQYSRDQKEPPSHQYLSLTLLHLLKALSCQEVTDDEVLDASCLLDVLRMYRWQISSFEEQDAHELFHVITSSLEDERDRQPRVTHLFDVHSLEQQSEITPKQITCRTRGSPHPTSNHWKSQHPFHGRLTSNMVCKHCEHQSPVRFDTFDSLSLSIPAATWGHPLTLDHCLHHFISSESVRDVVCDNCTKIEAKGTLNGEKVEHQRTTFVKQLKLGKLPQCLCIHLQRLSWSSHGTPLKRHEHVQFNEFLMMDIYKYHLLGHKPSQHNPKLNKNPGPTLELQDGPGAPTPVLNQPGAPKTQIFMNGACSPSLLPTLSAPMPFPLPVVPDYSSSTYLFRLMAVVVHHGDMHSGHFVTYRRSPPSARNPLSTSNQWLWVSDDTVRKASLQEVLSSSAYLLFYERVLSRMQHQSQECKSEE

[3] = USP30 IC50 μM (avg), Ubiquitin-Rhodamine substrate 25 nM, 1.5 nM recombinant USP30
[4] = read-out: USP30 IC50 μM (avg), Ubiquitin-Rhodamine substrate 25 nM, 1.5 nM recombinant USP30

Chain of USP30 (Q70CQ3 whole entry): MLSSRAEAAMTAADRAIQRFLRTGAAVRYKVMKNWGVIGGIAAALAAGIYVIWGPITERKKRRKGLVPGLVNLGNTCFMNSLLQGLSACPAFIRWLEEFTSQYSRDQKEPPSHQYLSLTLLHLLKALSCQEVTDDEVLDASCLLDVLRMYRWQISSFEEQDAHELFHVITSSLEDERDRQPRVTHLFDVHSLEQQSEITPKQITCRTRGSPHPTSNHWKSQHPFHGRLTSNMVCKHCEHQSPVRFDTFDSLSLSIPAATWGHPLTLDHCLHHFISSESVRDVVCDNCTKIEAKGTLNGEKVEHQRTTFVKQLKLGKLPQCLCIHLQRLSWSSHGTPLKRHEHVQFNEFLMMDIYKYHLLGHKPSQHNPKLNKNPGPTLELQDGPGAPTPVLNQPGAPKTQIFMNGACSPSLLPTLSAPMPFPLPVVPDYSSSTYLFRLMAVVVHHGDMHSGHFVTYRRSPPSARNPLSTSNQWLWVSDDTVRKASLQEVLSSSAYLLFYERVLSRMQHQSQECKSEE

Row | IC50 [1] | IC50 [2, 3] | IC50 [2, 4] | Compound
1 | 0.05 to 1 µM | 0.05 to 1 µM |  | CC(C)(CO)NS(=O)(=O)c1ccc(NC(=O)[C@H](Cc2ccccc2)NC(=O)c2ccc(F)cc2)cn1 [Compound I-116, (S)-4-fluoro-N-(1-(6-(N-(1-hydroxy-2-methylpropan-2-yl)sulfamoyl)pyridin-3-ylamino)-1-oxo-3-phenylpropan-2-yl)benzamide]
2 | 0.05 to 1 µM |  | < 0.05 µM | Cc1cc(NC(=O)[C@H](Cc2ccccc2)NC(=O)c2ccc(F)cc2)ccc1S(=O)(=O)NC(C)(C)C [Compound I-96, (S)-N-(1-(4-(N-tert-butylsulfamoyl)-3-methylphenylamino)-1-oxo-3-phenylpropan-2-yl)-4-fluorobenzamide]
3 | < 0.05 µM | 0.05 to 1 µM |  | CCNS(=O)(=O)c1ccc(NC(=O)[C@H](Cc2ccccc2)NC(=O)c2ccc(F)cc2)cc1 [Compound I-5, (S)-N-(1-(4-(N-Ethylsulfamoyl)phenylamino)-1-oxo-3-phenylpropan-2-yl)-4-fluorobenzamide]
4 | 0.05 to 1 µM | 0.05 to 1 µM |  | O=C(N[C@@H](Cc1ccccc1)C(=O)Nc1cccc2c(S(=O)(=O)NC3COC3)cccc12)c1ccc(F)cc1 [Compound I-131, (S)-4-fluoro-N-(1-(5-(N-oxetan-3-ylsulfamoyl)naphthalen-1-ylamino)-1-oxo-3-phenylpropan-2-yl)benzamide]
5 | < 0.05 µM | 0.05 to 1 µM |  | CCNS(=O)(=O)c1ccc(NC(=O)[C@H](Cc2ccccc2)NC(=O)c2ccc(F)cc2)nc1 [Compound I-117, (S)-N-(1-(5-(N-ethylsulfamoyl)pyridin-2-ylamino)-1-oxo-3-phenylpropan-2-yl)-4-fluorobenzamide]
6 | < 0.05 µM | 0.05 to 1 µM |  | CC1(NS(=O)(=O)c2ccc(NC(=O)[C@H](Cc3ccccc3)NC(=O)c3ccc(F)cc3)cn2)COC1 [Compound I-115, (S)-4-fluoro-N-(1-(6-(N-(3-methyloxetan-3-yl)sulfamoyl)pyridin-3-ylamino)-1-oxo-3-phenylpropan-2-yl)benzamide]
7 | < 0.05 µM | 0.05 to 1 µM |  | CC(C)(C)NS(=O)(=O)c1ccc(NC(=O)[C@H](Cc2ccccc2)NC(=O)c2cccc(F)c2)cc1 [Compound I-88, (S)-N-(1-(4-(N-tert-butylsulfamoyl)phenylamino)-1-oxo-3-phenylpropan-2-yl)-3-fluorobenzamide]
8 | 0.05 to 1 µM | 0.05 to 1 µM |  | CC(C)(C)NS(=O)(=O)c1ccc(NC(=O)[C@H](Cc2ccccc2)N2CCc3ccccc3C2=O)cc1 [Compound I-84, (S)-N-(4-(N-tert-butylsulfamoyl)phenyl)-2-(1-oxo-3,4-dihydroisoquinolin-2(1H)-yl)-3-phenylpropanamide]
9 | < 0.05 µM | 0.05 to 1 µM |  | CCNS(=O)(=O)c1cccc2c(NC(=O)[C@H](Cc3ccccc3)NC(=O)C3CCCCC3)cccc12 [Compound I-124, (S)-N-(1-(5-(N-ethylsulfamoyl)naphthalen-1-ylamino)-1-oxo-3-phenylpropan-2-yl)cyclohexanecarboxamide]
10 | 0.05 to 1 µM | 0.05 to 1 µM |  | COCCNS(=O)(=O)c1ccc(NC(=O)[C@H](Cc2ccccc2)NC(=O)c2ccc(F)cc2)nc1 [Compound I-120, (S)-4-fluoro-N-(1-(5-(N-(2-methoxyethyl)sulfamoyl)pyridin-2-ylamino)-1-oxo-3-phenylpropan-2-yl)benzamide]
11 | 0.05 to 1 µM | 0.05 to 1 µM |  | COCCNS(=O)(=O)c1ccc(NC(=O)[C@H](Cc2ccccc2)NC(=O)c2ccc(F)cc2)cn1 [Compound I-108, (S)-4-fluoro-N-(1-(6-(N-(2-methoxyethyl)sulfamoyl)pyridin-3-ylamino)-1-oxo-3-phenylpropan-2-yl)benzamide]
12 | > 10 µM |  | > 10 µM | O=C(NC1(C(=O)Nc2ccc(S(=O)(=O)NC3COC3)cc2)Cc2ccccc2C1)c1ccc(F)cc1 [Compound I-101, 2-(4-fluorobenzamido)-N-(4-(N-oxetan-3-ylsulfamoyl)phenyl)-2,3-dihydro-1H-indene-2-carboxamide]
13 | 0.05 to 1 µM | 1 to 10 µM |  | CC(C)(C)C[S+]([O-])c1ccc(NC(=O)[C@H](Cc2ccccc2)NC(=O)c2ccc(F)cc2)cc1 (stereo partly drawn) [Compound I-4, 4-fluoro-N-((2S)-1-(4-(neopentylsulfinyl)phenylamino)-1-oxo-3-phenylpropan-2-yl)benzamide]
14 | 0.05 to 1 µM | 0.05 to 1 µM |  | CN(C(=O)c1ccc(F)cc1)[C@@H](Cc1cccnc1)C(=O)Nc1ccc(S(=O)(=O)NC(C)(C)C)cc1 [Compound I-91, (S)-N-(1-(4-(N-tert-butylsulfamoyl)phenylamino)-1-oxo-3-(pyridin-3-yl)propan-2-yl)-4-fluoro-N-methylbenzamide]
15 | 0.05 to 1 µM | 0.05 to 1 µM |  | O=C(N[C@@H](Cc1ccccc1)C(=O)Nc1ccc(S(=O)(=O)NC2COC2)cn1)c1ccc(F)cc1 [Compound I-119, (S)-4-fluoro-N-(1-(5-(N-oxetan-3-ylsulfamoyl)pyridin-2-ylamino)-1-oxo-3-phenylpropan-2-yl)benzamide]
16 | < 0.05 µM | 0.05 to 1 µM |  | O=C(N[C@@H](Cc1ccccn1)C(=O)Nc1ccc(S(=O)(=O)NC2CCC2)cc1)c1ccc(F)cc1 [Compound I-142, (S)-N-(1-(4-(N-cyclobutylsulfamoyl)phenylamino)-1-oxo-3-(pyridin-2-yl)propan-2-yl)-4-fluorobenzamide]
17 | 0.05 to 1 µM | 1 to 10 µM |  | O=C(N[C@@H](Cc1ccccc1)C(=O)Nc1ccc(S(=O)(=O)NC23CC(C2)C3)cc1)c1cccnc1 [Compound I-79, (S)-N-(1-(4-(N-bicyclo[1.1.1]pentan-1-ylsulfamoyl)phenylamino)-1-oxo-3-phenylpropan-2-yl)nicotinamide]
18 | < 0.05 µM | 0.05 to 1 µM |  | O=C(N[C@@H](Cc1ccccc1)C(=O)Nc1ccc(S(=O)(=O)NC23CC(C2)C3)cc1)c1ccc(F)cn1 [Compound I-73, (S)-N-(1-(4-(N-bicyclo[1.1.1]pentan-1-ylsulfamoyl)phenylamino)-1-oxo-3-phenylpropan-2-yl)-5-fluoropicolinamide]
19 | 0.05 to 1 µM | 0.05 to 1 µM |  | O=C(N[C@@H](Cc1ccccc1)C(=O)Nc1ccc(S(=O)(=O)NC2CCC2)cc1)c1ccc(F)cn1 [Compound I-75, (S)-N-(1-(4-(N-cyclobutylsulfamoyl)phenylamino)-1-oxo-3-phenylpropan-2-yl)-5-fluoropicolinamide]
20 | 0.05 to 1 µM | 0.05 to 1 µM |  | O=C(N[C@@H](Cc1ccccc1)C(=O)Nc1ccc(S(=O)(=O)NC2CCCC2)cc1)c1ccc(F)cn1 [Compound I-74, (S)-N-(1-(4-(N-cyclopentylsulfamoyl)phenylamino)-1-oxo-3-phenylpropan-2-yl)-5-fluoropicolinamide]
21 | 0.05 to 1 µM | 0.05 to 1 µM |  | COCC(C)(C)NS(=O)(=O)c1ccc(NC(=O)[C@H](Cc2ccccc2)NC(=O)c2ccc(F)cc2)cn1 [Compound I-113, (S)-4-fluoro-N-(1-(6-(N-(1-methoxy-2-methylpropan-2-yl)sulfamoyl)pyridin-3-ylamino)-1-oxo-3-phenylpropan-2-yl)benzamide]
22 | 0.05 to 1 µM | 0.05 to 1 µM |  | CNS(=O)(=O)c1ccc(NC(=O)[C@H](Cc2ccccc2)NC(=O)c2ccc(F)cc2)cc1 [Compound I-30, (S)-4-fluoro-N-(1-(4-(N-methylsulfamoyl)phenylamino)-1-oxo-3-phenylpropan-2-yl)benzamide]
23 | 0.05 to 1 µM | 0.05 to 1 µM |  | CN1CCC(NS(=O)(=O)c2ccc(NC(=O)[C@H](Cc3ccccc3)NC(=O)c3ccc(F)cc3)cc2)CC1 [Compound I-33, (S)-4-fluoro-N-(1-(4-(N-(1-methylpiperidin-4-yl)sulfamoyl)phenylamino)-1-oxo-3-phenylpropan-2-yl)benzamide]
24 | < 0.05 µM | 0.05 to 1 µM |  | O=C(N[C@@H](Cc1ccccc1)C(=O)Nc1ccc(S(=O)(=O)NCC(F)(F)F)cc1)c1ccc(F)cc1 [Compound I-23, (S)-4-fluoro-N-(1-oxo-3-phenyl-1-(4-(N-(2,2,2-trifluoroethyl)sulfamoyl)phenylamino)propan-2-yl)benzamide]
25 | 0.05 to 1 µM | 0.05 to 1 µM |  | CC(C)(C)NS(=O)(=O)c1ccc(NC(=O)[C@H](Cc2ccccc2)NC(=O)c2cccnc2)cc1 [Compound I-87, (S)-N-(1-(4-(N-tert-butylsulfamoyl)phenylamino)-1-oxo-3-phenylpropan-2-yl)nicotinamide]
26 | 0.05 to 1 µM | 0.05 to 1 µM |  | O=C(N[C@@H](Cc1ccccc1)C(=O)Nc1ccc(S(=O)(=O)NC23CC(C2)C3)cn1)c1ccc(F)cc1 [Compound I-118, (S)-N-(1-(5-(N-bicyclo[1.1.1]pentan-1-ylsulfamoyl)pyridin-2-ylamino)-1-oxo-3-phenylpropan-2-yl)-4-fluorobenzamide]
27 | 0.05 to 1 µM | 0.05 to 1 µM |  | O=C(N[C@@H](Cc1ccccc1)C(=O)Nc1ccc(S(=O)(=O)NC2COC2)nc1)c1ccc(F)cc1 [Compound I-106, (S)-4-fluoro-N-(1-(6-(N-oxetan-3-ylsulfamoyl)pyridin-3-ylamino)-1-oxo-3-phenylpropan-2-yl)benzamide]

Row | Compound | IC50 [1] | IC50 [2, 3] | IC50 [2, 4]
28 | CC(C)(C)OCCNS(=O)(=O)c1ccc(NC(=O)[C@H](Cc2ccccc2)NC(=O)c2ccc(F)cc2)cc1 [Compound I-135, (S)-N-(1-(4-(N-(2-tert-butoxyethyl)sulfamoyl)phenylamino)-1-oxo-3-phenylpropan-2-yl)-4-fluorobenzamide] | 0.05 to 1 µM | 1 to 10 µM | 
